Source: article PMC11091832 (Journal of medicinal chemistry, 2021)
Like-named read-outs stand apart in the source and are kept apart here.

How the values were obtained:
hD2LR [1] = molecular target: T1, hD2LR (Homo sapiens, UniProt P14416)
hD3R [2] = molecular target: T2, hD3R (Homo sapiens, UniProt P35462); assay: Radioligand binding, agonist [3H]-
hD2LR [3] = molecular target: T1, hD2LR; assay: Radioligand binding, agonist [3H]-; conditions: for (D3R/D2R) Ki ratio, [3H]-(R)-(+)-7-OH-DPAT: selectivity for D2R, value printed in parentheses
hD3R [4] = molecular target: T2, hD3R

T1 sequence (P14416 whole entry): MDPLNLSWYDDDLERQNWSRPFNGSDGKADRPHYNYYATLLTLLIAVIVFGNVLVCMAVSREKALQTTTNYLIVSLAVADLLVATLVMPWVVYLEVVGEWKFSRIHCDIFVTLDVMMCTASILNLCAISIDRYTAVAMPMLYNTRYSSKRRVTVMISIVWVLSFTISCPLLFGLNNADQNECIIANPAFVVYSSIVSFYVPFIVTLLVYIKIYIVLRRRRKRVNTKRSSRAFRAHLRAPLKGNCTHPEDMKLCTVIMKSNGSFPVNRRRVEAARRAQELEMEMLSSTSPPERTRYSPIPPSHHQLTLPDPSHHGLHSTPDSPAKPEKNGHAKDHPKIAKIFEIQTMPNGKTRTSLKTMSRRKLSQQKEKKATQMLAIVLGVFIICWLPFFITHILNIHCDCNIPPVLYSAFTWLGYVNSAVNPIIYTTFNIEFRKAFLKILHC
T2 sequence (P35462 whole entry): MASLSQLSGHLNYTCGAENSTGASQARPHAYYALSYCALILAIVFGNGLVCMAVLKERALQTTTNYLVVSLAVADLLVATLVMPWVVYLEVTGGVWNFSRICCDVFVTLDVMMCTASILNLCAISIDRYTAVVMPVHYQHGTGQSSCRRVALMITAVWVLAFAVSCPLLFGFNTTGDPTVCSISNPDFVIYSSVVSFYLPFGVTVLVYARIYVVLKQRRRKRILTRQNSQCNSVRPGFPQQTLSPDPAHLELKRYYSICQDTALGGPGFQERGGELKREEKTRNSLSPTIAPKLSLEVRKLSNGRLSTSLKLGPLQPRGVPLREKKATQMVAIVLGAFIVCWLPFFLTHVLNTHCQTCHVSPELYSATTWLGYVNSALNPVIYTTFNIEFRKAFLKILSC

Row | Structure (SMILES) | Ki (hD2LR [1]) | Ki (hD3R [2]) | Ki (hD2LR [3]) | Ki (hD3R [4]) | (D3R/D2R) Ki ratio, [3H]-(R)-(+)-7-OH-DPAT (hD2LR [3])
1 | C[C@H]1CO[C@@H](c2ccc(N)nc2)CN1CC=C1CCC(CNC(=O)c2cc3ccccc3[nH]2)C1 (mixture of isomers) [Compound 15, N-((3-(2-((2S,5S)-2-(6-Aminopyridin-3-yl)-5-methylmorpholino)ethylidene)cyclopentyl)methyl)-1H-indole-2-carboxamide] | 7920 ± 772 nM | 7.41 ± 0.323 nM | 55.9 ± 4.78 nM | 104 ± 7.65 nM | –
2 | CN(CC[C@@H]1CC[C@@H](CNC(=O)c2cc3ccccc3[nH]2)C1)[C@@H]1Cc2cccc3[nH]c(=O)n(c23)C1 (relative stereo) [rel-trans-16b, N-((3-(2-(Methyl((R)-2-oxo-1,2,5,6-tetrahydro-4H-imidazo[4,5,1-ij]quinolin-5-yl)amino)ethyl)cyclopentyl)methyl)-1H-indole-2-carboxamide] | – | – | – | – | (17)
3 | CN(CC[C@@H]1CC[C@H](CNC(=O)c2cc3ccccc3[nH]2)C1)[C@@H]1Cc2cccc3[nH]c(=O)n(c23)C1 (relative stereo) [rel-cis-16a, N-((3-(2-(Methyl((R)-2-oxo-1,2,5,6-tetrahydro-4H-imidazo[4,5,1-ij]quinolin-5-yl)amino)ethyl)cyclopentyl)methyl)-1H-indole-2-carboxamide] | – | – | – | – | (9.6)
